Reference: patent US11638713B2, “Patentiflorin A analogs as antiviral agents” (priority 2019, dated 2023)

Columns and labels:
in vitro = conditions: human
HIV = assay: microbe, parasite or virus in culture; assay type: cell-based; conditions: for EC50: Human immunodeficiency virus 1, A549
H5N1 virus = assay: microbe, parasite or virus in culture; assay type: cell-based, H5N1 influenza virus; conditions: Influenza A virus, read-out: % Inhibition against H5N1 virus; for inhibition at 1 µg/mL: H5N1, A549, 1000 ng/mL; for inhibition at 5 µg/mL: H5N1, A549, 5000 ng/mL; for inhibition at 0.05 µg/mL: H5N1, A549, 50 ng/mL; for inhibition at 0.25 µg/mL: H5N1, A549, 250 ng/mL

SMILES	CC50 (in vitro; CC50 (nM))	EC50 (HIV)	further results
COc1cc2c(OCC(=O)OC(C)(C)C)c3c(c(-c4ccc5c(c4)OCO5)c2cc1OC)C(=O)OC3 [Compound 12a]	> 10100 nM	518 nM	
COc1cc2c(OCC(=O)O)c3c(c(-c4ccc5c(c4)OCO5)c2cc1OC)C(=O)OC3 [Compound 13]	> 114000 nM	23100 nM	
COc1cc2c(OCC(N)=O)c3c(c(-c4ccc5c(c4)OCO5)c2cc1OC)C(=O)OC3 [Compound 14a]	548 nM	103 nM	
CNC(=O)COc1c2c(c(-c3ccc4c(c3)OCO4)c3cc(OC)c(OC)cc13)C(=O)OC2 [Compound 14b]	2120 nM	278 nM	
COc1cc2c(OCCO)c3c(c(-c4ccc5c(c4)OCO5)c2cc1OC)C(=O)OC3 [Compound 15a]	918 nM	33.6 nM	
COc1cc2c(OCC(C)(C)O)c3c(c(-c4ccc5c(c4)OCO5)c2cc1OC)C(=O)OC3 [Compound 15b]	1330 nM	15.5 nM	
COc1cc2c(OC(C)=O)c3c(c(-c4ccc5c(c4)OCO5)c2cc1OC)C(=O)OC3 [Compound 16]	3400 nM		
COc1cc2c(OC)c3c(c(-c4ccc5c(c4)OCO5)c2cc1OC)C(=O)OC3 [Compound 17b]	2140 nM	2.6 nM	anti-HIV activity in terms of SI values (HIV): much more improved anti-HIV activity
C#CCOc1c2c(c(-c3ccc4c(c3)OCO4)c3cc(OC)c(OC)cc13)C(=O)OC2 [Compound 17c]	890 nM	4.8 nM	anti-HIV activity in terms of SI values (HIV): much more improved anti-HIV activity
COc1cc2c(Oc3ncccn3)c3c(c(-c4ccc5c(c4)OCO5)c2cc1OC)C(=O)OC3 [Compound 17d]	61100 nM	1590 nM	
COc1cc2c(OC(=O)C3CCCC3)c3c(c(-c4ccc5c(c4)OCO5)c2cc1OC)C(=O)OC3 [Compound 17f]	7070 nM	772 nM	
COc1cc2c(OC(=O)c3ccc(F)cc3)c3c(c(-c4ccc5c(c4)OCO5)c2cc1OC)C(=O)OC3 [Compound 17g]	1320 nM	79.9 nM	
COc1ccc(C(=O)Oc2c3c(c(-c4ccc5c(c4)OCO5)c4cc(OC)c(OC)cc24)C(=O)OC3)cc1 [Compound 17h]	1460 nM	96.5 nM	
COc1cc2c(OS(=O)(=O)C(F)(F)F)c3c(c(-c4ccc5c(c4)OCO5)c2cc1OC)C(=O)OC3 [Compound 18]	1360 nM	488 nM	
COc1cc2c(C)c3c(c(-c4ccc5c(c4)OCO5)c2cc1OC)C(=O)OC3 [Compound 19b]	77.3 nM	6.1 nM	
COc1cc2c(-c3ccncc3)c3c(c(-c4ccc5c(c4)OCO5)c2cc1OC)C(=O)OC3 [Compound 19c]	1670 nM	88.9 nM	
COc1cc2cc3c(c(-c4ccc5c(c4)OCO5)c2cc1OC)C(=O)OC3 [Compound 19d]	5430 nM	22.9 nM	anti-HIV activity in terms of SI values (HIV): much more improved anti-HIV activity
COc1cc2c(Nc3ccc(C(F)(F)F)cc3)c3c(c(-c4ccc5c(c4)OCO5)c2cc1OC)C(=O)OC3 [Compound 19e]	> 9550 nM	212 nM	
COc1cc2c(Nc3ccccc3)c3c(c(-c4ccc5c(c4)OCO5)c2cc1OC)C(=O)OC3 [Compound 19f]	4510 nM	976 nM	
CCc1c2c(c(-c3ccc4c(c3)OCO4)c3cc(OC)c(OC)cc13)C(=O)OC2 [Compound 19g]	196 nM	19.3 nM	
COc1cc2c(-c3cccs3)c3c(c(-c4ccc5c(c4)OCO5)c2cc1OC)C(=O)OC3 [Compound 19h]	2390 nM	270 nM	
COc1cc2c(-c3cccnc3)c3c(c(-c4ccc5c(c4)OCO5)c2cc1OC)C(=O)OC3 [Compound 19i]	38400 nM	877 nM	
COc1cc2c(-c3ccco3)c3c(c(-c4ccc5c(c4)OCO5)c2cc1OC)C(=O)OC3 [Compound 19k]	1060 nM	60.1 nM	
COc1cc2c(C3=CCN(C(=O)OC(C)(C)C)CC3)c3c(c(-c4ccc5c(c4)OCO5)c2cc1OC)C(=O)OC3 [Compound 19l]	4190 nM	75.9 nM	

SMILES	CC50 (in vitro; CC50 (nM))	EC50 (HIV)	further results
COc1cc2c(-c3ccc4c(c3)OCO4)c3c(c(N4CCOCC4)c2cc1OC)COC3=O [Compound 19m]	1500 nM	88.6 nM	
COc1cc2c(C(C)=O)c3c(c(-c4ccc5c(c4)OCO5)c2cc1OC)C(=O)OC3 [Compound 19n]	1060 nM	39.5 nM	
COc1cc2c(C#C[Si](C)(C)C)c3c(c(-c4ccc5c(c4)OCO5)c2cc1OC)C(=O)OC3 [Compound 19o]	1220 nM	35.7 nM	
COc1cc2c(-c3ccc4c(c3)OCO4)c3c(c(C(C)O)c2cc1OC)COC3=O (stereo not shown) [Compound 20]	389 nM	21.7 nM	
COc1cc2c(N)c3c(c(-c4ccc5c(c4)OCO5)c2cc1OC)C(=O)OC3 [Compound 22]	358 nM	1.61 nM	anti-HIV activity in terms of SI values (HIV): much more improved anti-HIV activity
COc1cc2c(NC(C)=O)c3c(c(-c4ccc5c(c4)OCO5)c2cc1OC)C(=O)OC3 [Compound 24]	> 11900 nM	88.9 nM	
COc1cc2c(OC3O[C@H](C)[C@@H](OC(C)=O)[C@H](OC(C)=O)[C@H]3OC(C)=O)c3c(c(-c4ccc5c(c4)OCO5)c2cc1OC)C(=O)OC3 (stereo partly shown) [Compound 25b, Peracetylated Patentiflorin A]	259 nM		
COc1cc2c(OC3OC[C@@H](O)[C@H](O)[C@H]3O)c3c(c(-c4ccc5c(c4)OCO5)c2cc1OC)C(=O)OC3 (stereo partly drawn) [Compound 26a, 7β-D-xylosyloxydiphyllin]	6220 nM		inhibition at 1 µg/mL (H5N1 virus): 93.6%; inhibition at 5 µg/mL (H5N1 virus): 97.8%
COc1cc2c(OC3OC[C@H](O)[C@H](O)[C@H]3O)c3c(c(-c4ccc5c(c4)OCO5)c2cc1OC)C(=O)OC3 (stereo partly drawn) [Compound 26c, 7-O-α-L-arabinosyldiphyllin]	> 9760 nM		
COc1cc2c(OC3O[C@@H](C)[C@@H](O)[C@@H](O)[C@@H]3O)c3c(c(-c4ccc5c(c4)OCO5)c2cc1OC)C(=O)OC3 (stereo partly drawn) [Compound 26d, 7-O-β-L-fucopyranosyldiphyllin]	> 9500 nM	42.3 nM	anti-HIV activity in terms of SI values (HIV): much more improved anti-HIV activity
COc1cc2c(OC3OC[C@@H](O)[C@H](OC(C)=O)[C@H]3O)c3c(c(-c4ccc5c(c4)OCO5)c2cc1OC)C(=O)OC3 (stereo partly drawn) [Compound 27ab, 3″-Acetyl-7-O-β-D-xylosyldiphyllin]	2760 nM		inhibition at 1 µg/mL (H5N1 virus): 96.9%; inhibition at 5 µg/mL (H5N1 virus): 97.8%
COc1cc2c(OC3OC[C@@H](O)[C@H](O)[C@H]3OC(C)=O)c3c(c(-c4ccc5c(c4)OCO5)c2cc1OC)C(=O)OC3 (stereo partly shown) [Compound 27ac]	2940 nM		
COc1cc2c(OC3OC[C@@H](OC(C)=O)[C@H](OC(C)=O)[C@H]3O)c3c(c(-c4ccc5c(c4)OCO5)c2cc1OC)C(=O)OC3 (stereo partly drawn) [Compound 27ad, 3″, 4″-Diacetyl-7-O-β-D-xylosyldiphyllin]	783 nM		
COc1cc2c(OC3OC[C@@H](OC(C)=O)[C@H](O)[C@H]3OC(C)=O)c3c(c(-c4ccc5c(c4)OCO5)c2cc1OC)C(=O)OC3 (stereo partly drawn) [Compound 27ae, 2″,4″-Diacetyl-7-O-β-D-xylosyldiphyllin]	2590 nM		
COc1cc2c(OC3OC[C@@H](O)[C@H](OC(C)=O)[C@H]3OC(C)=O)c3c(c(-c4ccc5c(c4)OCO5)c2cc1OC)C(=O)OC3 (stereo partly drawn) [Compound 27af, 2″,3″-Diacetyl-7-O-β-D-xylosyldiphyllin]	2250 nM		
COc1cc2c(OC3O[C@H](C)[C@@H](OC(C)=O)[C@H](O)[C@H]3O)c3c(c(-c4ccc5c(c4)OCO5)c2cc1OC)C(=O)OC3 (stereo partly drawn) [Compound 27ba, 4″-Acetyl-7-O-β-D-patentiflorin A]	1160 nM	8.47 nM	
COc1cc2c(OC3O[C@H](C)[C@@H](O)[C@H](OC(C)=O)[C@H]3O)c3c(c(-c4ccc5c(c4)OCO5)c2cc1OC)C(=O)OC3 (stereo partly drawn) [Compound 27bb, 3″-Acetyl-7-O-β-D-patentiflorin A]	589 nM	1.01 nM	anti-HIV activity in terms of SI values (HIV): much more improved anti-HIV activity
COc1cc2c(OC3O[C@H](C)[C@@H](OC(C)=O)[C@H](OC(C)=O)[C@H]3O)c3c(c(-c4ccc5c(c4)OCO5)c2cc1OC)C(=O)OC3 (stereo partly drawn) [Compound 27bd, 3″, 4″-Diacetyl-7-O-β-D-patentiflorin A]	421 nM	6.39 nM	
COc1cc2c(OC3O[C@H](C)[C@@H](O)[C@H](OC(=O)N(C)C)[C@H]3O)c3c(c(-c4ccc5c(c4)OCO5)c2cc1OC)C(=O)OC3 (stereo partly drawn) [Compound 31f, 3″-O-dimethylcarbamyl-7-O-β-D-patentiflorin A]	3.74 nM		
COc1cc2c(OC3O[C@H](C)[C@@H](O)[C@H](OC(=O)c4ccc(Cl)cc4)[C@H]3O)c3c(c(-c4ccc5c(c4)OCO5)c2cc1OC)C(=O)OC3 (stereo partly drawn) [Compound 31h, 3″-O-p-chlorobenzoyl-7-O-β-D-patentiflorin A]	336 nM		inhibition at 0.05 µg/mL (H5N1 virus): 94.6%; inhibition at 0.25 µg/mL (H5N1 virus): 97.6%
COc1cc2c(OC3O[C@H](C)[C@@H](O)[C@H](OC(=O)c4cnccn4)[C@H]3O)c3c(c(-c4ccc5c(c4)OCO5)c2cc1OC)C(=O)OC3 (stereo partly drawn) [Compound 31i, 3″-O-pyrazinecarbonyl-7-O-β-D-patentiflorin A]			anti-HIV activity in terms of SI values (HIV): much more improved anti-HIV activity
COc1cc2c(OC3O[C@H](C)[C@@H](O)[C@H](OC(=O)C(Cl)(Cl)Cl)[C@H]3O)c3c(c(-c4ccc5c(c4)OCO5)c2cc1OC)C(=O)OC3 (stereo partly drawn) [Compound 31k, 3″-O-trichloroacetyl-7-O-β-D-patentiflorin A]	508 nM		inhibition at 0.05 µg/mL (H5N1 virus): 86%; inhibition at 0.25 µg/mL (H5N1 virus): 95.7%
CC(=O)O[C@H]1C(=O)[C@@]2(C)[C@H]([C@H](OC(=O)c3ccccc3)[C@]3(O)C[C@H](OC(=O)[C@H](O)[C@@H](NC(=O)c4ccccc4)c4ccccc4)C(C)=C1C3(C)C)[C@]1(OC(C)=O)CO[C@@H]1C[C@@H]2O [taxol, reference compound]			CC50 (in vitro; CC50 against the host cell line A549): 2.99 nM
